Source: patent publication US7365096B2, “Methods for selectively inhibiting Janus tyrosine kinase 3 (Jak3)” (Board of Regents, The University of Texas System, priority 2002, dated 2008)
“Also recorded” adds a separate entry of the source.

Assays:
NF-kB = assay: TNF-α-induced NF-kB DNA binding, EMSA; assay type: cell-based, human; conditions: same treatment set
Description: EMSA. Electrophoretic mobility shift assay (EMSA). Drug or vehicle control (DMSO) treated cells were pelleted by centrifugation (20,000×g for 1 min at 4° C.) and subsequently washed in five volumes of 10 mM HEPES, pH 7.9, 10 mM KCl, 1.5 mM MgCl2, 0.5 mM DTT, […], 5 μg/ml aprotinin, 1 μg/ml pepstatin A and 2 μg/ml leupeptin, centrifuged, then lysed in the same buffer supplemented with 1% NP-40 and incubated for 20 min on ice. The nuclei-containing pellet was resuspended in equal volumes of low salt buffer (10 mM HEPES, 25% glycerol, 1.5 mM MgCl2, 20 mM KCl, 0.5 mM DTT, 0.2 mM EDTA and protease inhibitors) and high salt buffer (low salt buffer containing 800 mM KCl). This fraction was then isolated by centrifugation at 4° C. for 10 min and supernatants saved as nuclear protein extract and stored at −70° C. Gel mobility shift assays were performed to detect Stat5a/b DNA binding activity using a Stat5 DNA binding sequence corresponding to the promoter of the β-casein gene (5′-[…]-3′) or an NF-kB binding element (5′-[…]-3′). Both probes were end-labeled with [^32P]dATP. […]
In FIG. 9A, it can be seen that NC1153 inhibits Jak3 driven transcription factor-Stat5a/b in PHA activated T-cells treated with increasing concentrations of NC1153 in a dose dependent manner as measured via EMSA analysis (upper panel). […]

adapter protein Shc = assay: Shc tyrosine phosphorylation (phospho-Western blot); assay type: cell-based; conditions: phospho-Western blots
Description: (§1) Solubilization of membrane proteins, immunoprecipitation, and Western blot analysis. Frozen cell pellets were thawed on ice and solubilized in 1% TX-100 lysis buffer (10^8 cells/ml) and clarified by centrifugation, as previously described.^16 For human T-cells, supernates were incubated rotating end over end for 2 hours at 4° C. with either 5 μl/ml polyclonal rabbit antisera raised against peptides derived from the unique COOH-termini of Jak3 (amino acid [a.a.] 1104-1124), carboxyl termini of human Stat5a (a.a. 775-794) or Stat5b (a.a. 777-787).^26 Ab and immunoprecipitated proteins were captured by incubation for 30 minutes with Protein A-Sepharose beads (Pharmacia, Piscataway, N.J.), sedimented for purification, and eluted by boiling in 2×SDS-sample buffer (20% Glycerol, 10% 2-Mercaptoethanol, 4.6% SDS, 0.004% Bromophenol blue in 0.125 M Tris pH 6.8) for 4 minutes. For phosphoMapk assays, approximately 25 μg of total cell lysate was dissociated in SDS-sample buffer and separated on 10% (all others on 7.5%) SDS-PAGE under reducing conditions. […]

p44/42 Erk1/2 = assay: IL-2-mediated p44/42 Erk1/2 phosphorylation in PHA-activated T cells; assay type: cell-based; conditions: human T-cells, 2 hours drug
Description: as §1

[1] = system: IL2R-α, -β, and -γ chains; assay: FACS analysis of IL2 receptor expression on PHA-activated T-cell blasts; assay type: cell-based, human; conditions: 50 μM overnight
Description: FIG. 7A is a bar graph showing that proliferation of PHA-activated human T cells was blocked by the indicated NCI agents following stimulation with IL-2. FIG. 7B is a FACS analysis of PHA-activated T-cell blasts that were treated without (heavy line) or with 50 μM NC1153 (light line) overnight and stained for IL2R-α, -β, and -γchains. FIG. 7C is a graph of cell growth inhibition over a range of NC1153 concentration in non-Jak3 expressing Jurkat cells (black diamonds) and in Jak3 containing PHA activated T-cells (open boxes). FIG. 7D is a graph of cell growth inhibition versus NC1153 concentration in T-cells stimulated by cytokines that utilize Jak3 and the common gamma chain.
Also shown (FIG. 7B) is a graph showing the FACS analysis of PHA-activated T-cell blasts that were treated without (heavy line) or with 50 μM NC1153 (light line) overnight and stained for IL2R-α, -β, and -γ chains. The dashed lines indicate cells pretreated with NC1153. […] Data are normalized as percent of vehicle control. NC1153 inhibits growth of cells by cytokines that utilize Jak3 and the common gamma chain (FIG. 7D). […] Thus, the inhibitory effects of NC1153 are not limited to cells stimulated only by IL-2. Instead, the entire family of cytokines which use Jak3 are blocked by NC1153.

Compound: CN(C)CC1CCCCCCCCCC(CN(C)C)C1=O (mixture of isomers) [649641P (NC1153)]
- NF-kB activation / DNA binding by TNF-α (EMSA) (NF-kB): not affected; also recorded: no effect
- NF-kB activation / DNA binding by TNF-α (EMSA) (NF-kB; listed as NC1153): not affected
- tyrosine phosphorylation of adapter protein Shc (adapter protein Shc): inhibited tyrosine phosphorylation
- IL2-mediated Erk1/2 phosphorylation / activation (p44/42 Erk1/2): blocks IL2-mediated Erk1/2 activation; also recorded: inhibited tyrosine phosphorylation
- IL2 receptor expression [1]: failed to affect IL2 receptor expression; also recorded: unaffected
